This is an account of results in article PMC12390684 (Viruses, 2025).

Structures are written as SMILES. Values joined by “and” are separate entries in the source; they are usually repeats but may differ in a detail not shown here. Equal values may be shown once. Read-outs that look alike come from different tables or passages of the source. A value given as a limit tells only on which side of the number the result lay.

Data set [1] concerns the target IN-GCN2 interaction (6xHis-IN / GST-GCN2) (UniProt P04585+Q9P2K8). Briefly: biochemical. Type of data set: binding, HIV-1 IN; human GCN2. Conditions: for IC50: IC50, inhibition of IN-GCN2 interaction; for IN-GCN2 interaction (%): screen, single dose 100 µM, single replicate, residual AlphaLISA signal normalized to DMSO control. Background: In Alpha technology, singlet oxygen from a donor bead excites a nearby acceptor bead.

Data set [2] can be described thus: Cytotoxicity (CellTiter 96 AQueous). Format: cell-based. Conditions: human.
For another data set, the system named is HIV-1Laï. Briefly: microbe, parasite or virus in culture. Type of data set: cell-based. To be noted: for SI (CC50/EC50): selectivity index; for nontoxic concentrations at which a proviral effect was seen: Figure S5.
The target of data set [3] is T1, HIV-1 IN (Human immunodeficiency virus type 1 group M subtype B, UniProt P04585). Conditions: cited from earlier work.
Data set [4] concerns the target T1, HIV-1 IN. Briefly: Strand transfer (ST) gel-based assay. Type of data set: biochemical.
Where [5] appears, read: plated compounds of the screen, dose-response 100 µM to 46 nM (Figure 1B), n = 9.
The mark [6] stands for this setting: P4 MAGI CCR5+ cells, 24 h, read-out: CC50.
[7] abbreviates: Human immunodeficiency virus 1, MAGI, 24 h infection, read-out: EC50.
[8] abbreviates: SAR study, fresh dilutions from powder, at least three independent experiments.
[9] abbreviates: Human immunodeficiency virus 1, MAGI, 24 h, 24 h infection, read-out: EC50.

IN-GCN2 interaction (6xHis-IN / GST-GCN2), sequence (Q9P2K8 192-1024, other chains not shown): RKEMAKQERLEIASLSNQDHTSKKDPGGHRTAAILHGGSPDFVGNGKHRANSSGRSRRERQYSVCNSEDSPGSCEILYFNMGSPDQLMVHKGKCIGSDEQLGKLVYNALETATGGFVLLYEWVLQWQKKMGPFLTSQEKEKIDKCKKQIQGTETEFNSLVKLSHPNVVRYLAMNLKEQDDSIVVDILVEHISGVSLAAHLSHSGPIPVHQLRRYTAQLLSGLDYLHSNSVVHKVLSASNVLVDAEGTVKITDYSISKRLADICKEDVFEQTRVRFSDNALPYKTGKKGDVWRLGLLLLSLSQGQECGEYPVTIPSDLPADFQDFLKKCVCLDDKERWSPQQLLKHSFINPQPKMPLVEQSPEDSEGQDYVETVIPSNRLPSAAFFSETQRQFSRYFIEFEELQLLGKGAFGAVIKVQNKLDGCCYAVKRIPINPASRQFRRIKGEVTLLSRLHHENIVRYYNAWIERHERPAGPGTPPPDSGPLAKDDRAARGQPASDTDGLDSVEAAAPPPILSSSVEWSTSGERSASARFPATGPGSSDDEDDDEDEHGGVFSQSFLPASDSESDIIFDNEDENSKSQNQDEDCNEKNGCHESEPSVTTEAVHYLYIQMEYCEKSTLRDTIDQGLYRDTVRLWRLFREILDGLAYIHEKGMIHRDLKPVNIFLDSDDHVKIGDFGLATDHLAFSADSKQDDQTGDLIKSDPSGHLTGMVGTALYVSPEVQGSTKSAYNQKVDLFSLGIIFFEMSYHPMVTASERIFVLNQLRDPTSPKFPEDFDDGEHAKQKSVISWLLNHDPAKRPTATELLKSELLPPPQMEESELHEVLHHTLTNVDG

Regarding `CC(=O)OC(C)C1C2=C(C(=O)CC1(C)O)C(=O)c1c(ccc(-c3ccc4c(c3O)C(=O)C3=C(C4=O)C(C(C)OC(C)=O)C(C)(O)CC3=O)c1O)C2=O` (stereo not shown) [NSC248605, Julimycin B2], the IC50 in data set [1] (setting [5]) was 30 µM; at HIV-1 IN [3] (read-out: IC50, non-selective inhibition of IN activities), 140 µM. Further, the “IN-GCN2 interaction (%)” value in data set [1] is listed as 6.97%. In addition, in data set [2] (setting [6]), the CC50 at 24 h was over 5 µM. Besides, in the data set on HIV-1Laï, the “effect on HIV replication, in words” value is listed as “anti-”. For the same molecule, in the data set with HIV-1Laï (setting [7]), the EC50 stood at 0.167 µM.

In the case of `COc1cc2c3c(c1)-c1c(ccc(OC)c1O)CC3N(C)CC2` (stereo not shown) [Compound 3i], in data set [1] (setting [8]), the half-maximal inhibitory concentration (IC50) was over 100 µM. The molecule further came in with a cytotoxic concentration (CC50) at 24 h in data set [2] of over 5 µM. The EC50 in the data set with HIV-1Laï (setting [9]) is over 5 µM.

For `CCOC(=O)N1CCc2cc(OC)c(OC)c3c2c1cc1cc(OC)c(OC)cc13` [Compound 3d], in data set [1] (setting [8]), 71 µM corresponded to half-maximal inhibition (IC50). Further, the 50% cytotoxic concentration (CC50) at 24 h in data set [2] (setting [6]) was over 5 µM. In addition, in the data set on HIV-1Laï, the “effect on HIV replication, in words” value is given as “decrease in viral replication”. For the same molecule, the concentration for a half-maximal effect (EC50) is 1.02 µM in the data set on HIV-1Laï (24 h infection, read-out: EC50) and 1 µM in the data set on HIV-1Laï (setting [9]). Further, in the data set with HIV-1Laï, the “SI (CC50/EC50)” value was over 4.9.

In the case of `CCCCCCCC(=O)OCC(=O)C1(O)Cc2c(O)c3c(c(O)c2C(OC2CC(N)C(O)C(C)O2)C1)C(=O)c1c(OC)cccc1C3=O` (stereo not shown) [Compound 1g, adriamycin octanoate], in data set [1] (setting [8]), the IC50 was 3.95 µM and 4 µM. The CC50 in data set [2] (24 h, read-out: CC50) is 1.67 µM. Moreover, the EC50 in the data set with HIV-1Laï (setting [9]) was determined as 0.211 µM. Further, the “SI (CC50/EC50)” value is listed as 7.9 in the data set on HIV-1Laï and over 10.1 in the data set on HIV-1Laï (listed as NSC149584).

The molecule `O=C1c2c(O)ccc(O)c2C(=O)c2c(NCCCO)ccc(NCCCO)c21` [Compound 2l] showed an IC50 in data set [1] (setting [8]) of 13 µM. The CC50 at 24 h in data set [2] (setting [6]) was over 5 µM. Also, the EC50 in the data set on HIV-1Laï (setting [9]) was over 5 µM.

As to `CC(=O)Nc1ccc(Nc2ccc(NCCO)c3c2C(=O)c2c(O)ccc(O)c2C3=O)cc1` [Compound 2h], in data set [1] (setting [8]), it took 10.6 µM to reach half-maximal inhibition (IC50). In addition, the CC50 at 24 h in data set [2] (setting [6]) was over 5 µM. Further, in the data set on HIV-1Laï (setting [9]), the EC50 was over 5 µM.

For `CCCCC1CCCCCCc2[nH]c(C=C3N=C(c4ccc[nH]4)C=C3OC)cc21` (stereo not shown) [NSC247562], the IC50 in data set [1] (setting [5]) was found to be 1.45 µM. Moreover, in data set [1], the “IN-GCN2 interaction (%)” value was 8.97%. In addition, the CC50 in data set [2] (24 h, read-out: CC50) was found to be 3.85 µM. For the same molecule, the “nontoxic concentrations at which a proviral effect was seen” value with HIV-1Laï was under 200 nM.

With `COc1cccc2c1C(=O)c1c(O)c3c(c(O)c1C2=O)C[C@@](O)(C(=O)CO)C[C@@H]3O[C@H]1C[C@H](N2CCOCC2)[C@H](O)[C@H](C)O1` [NSC354646, reference compound], the “inhibition of IN in vitro, in words” value on HIV-1 IN [3] is “micromolar inhibitors”.

Take `COc1cc(OC)c2c(O)c3c(c(-c4ccc5cc6c(c(O)c5c4O)C(=O)CC(C)(O)C6)c2c1)CC(C)OC3C` (stereo not shown) [Compound 2b, Karwinskia toxin T-544]: the cytotoxic concentration (CC50) at 24 h in data set [2] (24 h, read-out: CC50) is over 5 µM. In the data set on HIV-1Laï (setting [9]), the EC50 is over 5 µM. The 50% inhibitory concentration (IC50) at HIV-1 IN [3] (read-out: IC50, inhibition of both 3′-P and ST) is 21 µM.

On to `CCCCCC1=C/C(=C/c2[nH]c(-c3ccc[nH]3)cc2OC)N=C1C` [NSC47147, prodigiosin], for which, in data set [1] (plated compounds of the screen, dose-response (Figure 1B), n = 9), 0.88 µM corresponded to half-maximal inhibition (IC50). The “IN-GCN2 interaction (%)” value in data set [1] is recorded as 6.31%. Moreover, the CC50 at 24 h in data set [2] (24 h, read-out: CC50) is 1.96 µM. The “nontoxic concentrations at which a proviral effect was seen” value with HIV-1Laï was under 200 nM.

As to `COc1cccc2c1C(=O)c1c(O)c3c(c(O)c1C2=O)CC(O)(C(C)=O)CC3OC1CC([N+](C)(C)C)C(O)C(C)O1` (stereo not shown) [Compound 1q], inhibition in data set [1] (setting [8]) was half-maximal at 75 µM (IC50). Moreover, the CC50 in data set [2] (24 h, read-out: CC50) is over 5 µM. For the same molecule, the EC50 in the data set on HIV-1Laï (setting [9]) was over 5 µM.

In data set [1] (setting [8]), `O=C1c2c(O)ccc(O)c2C(=O)c2c(NCCCCO)ccc(NCCCCO)c21` [Compound 2i] displayed an IC50 of 11.2 µM. Also, the 50% cytotoxic concentration (CC50) at 24 h in data set [2] (setting [6]) was over 5 µM. The EC50 with HIV-1Laï (setting [9]) was over 5 µM.

Molecule `O=C1c2c(O)ccc(O)c2C(=O)c2c(NCCO)ccc(NCCO)c21` [Compound 2e] showed an IC50 in data set [1] (setting [8]) of 4.4 µM. For the same molecule, the CC50 at 24 h in data set [2] was over 5 µM. In addition, in the data set with HIV-1Laï (setting [9]), the 50% effective concentration (EC50) is over 5 µM.

As to `COc1cc2c3c(cc4ccccc4c3c1O)N(C)CC2` [NSC785168], the half-inhibitory concentration (IC50) was found to be 17 µM in data set [1] (setting [8]) and 5.7 µM in data set [1] (setting [5]). In data set [1], the “IN-GCN2 interaction (%)” value is 4.53%. Further, the 50% cytotoxic concentration (CC50) in data set [2] (24 h, read-out: CC50) is over 5 µM. Further, the half-maximal effective concentration (EC50) with HIV-1Laï (setting [9]) is over 5 µM.

In data set [1] (setting [8]), `O=C1c2c(O)ccc(O)c2C(=O)c2c(NCCOCCO)ccc(NCCOCCO)c21` [Compound 2g] displayed an IC50 of 6.6 µM. Moreover, the CC50 at 24 h in data set [2] is over 5 µM. Moreover, the half-maximal effective concentration (EC50) with HIV-1Laï (setting [9]) is over 5 µM.

Turning to `COc1cccc2c1C(=O)c1c(O)c3c(c(O)c1C2=O)CC(O)(C(C)=O)CC3OC1CC(N)C(OC2CC(O)C(O)C(C)O2)C(C)O1` (stereo not shown) [Compound 1h], the concentration for half-maximal inhibition (IC50) in data set [1] (setting [8]) was 6.5 µM. Moreover, the CC50 at 24 h in data set [2] was over 5 µM. Further, the half-maximal effective concentration (EC50) in the data set with HIV-1Laï (setting [9]) was 1.66 µM. Further, in the data set with HIV-1Laï, the “SI (CC50/EC50)” value was over 3.

In data set [1] (setting [8]), `CCOC(OCC)C(=O)OCC(=O)C1(O)Cc2c(O)c3c(c(O)c2C(OC2CC(N)C(O)C(C)O2)C1)C(=O)c1c(OC)cccc1C3=O` (stereo not shown) [Compound 1i] returned a half-maximal inhibitory concentration (IC50) of 8.05 µM. In addition, the CC50 at 24 h in data set [2] was over 5 µM. Moreover, in the data set on HIV-1Laï (Human immunodeficiency virus 1, MAGI, 24 h), the EC50 was over 5 µM.

In data set [1] (setting [8]), `S=c1[nH]c2ccccc2nc1NCc1ccccc1` [Compound 3f] returned a concentration for half-maximal inhibition (IC50) of 83 µM. The CC50 at 24 h in data set [2] (setting [6]) was over 5 µM. In addition, the EC50 was 2.37 µM in the data set on HIV-1Laï (24 h infection, read-out: EC50) and 2.4 µM in the data set on HIV-1Laï (setting [9]). Besides, the “SI (CC50/EC50)” value in the data set with HIV-1Laï is over 2.1.

Consider `N#CCCNc1ccc(NCCC#N)c2c1C(=O)c1c(O)ccc(O)c1C2=O` [Compound 2m], for which the midpoint of inhibition in data set [1] (setting [8]), the IC50, lay at 16 µM. For the same molecule, the CC50 at 24 h in data set [2] (setting [6]) was over 5 µM. The EC50 in the data set with HIV-1Laï (setting [9]) was over 5 µM.

Turning to `O=C1c2ccccc2C(=O)c2c(NCCNCCO)ccc(O)c21` [Compound 2d], in data set [1] (setting [8]), inhibition was half-maximal at 1.2 µM (IC50). Further, on HIV-1 IN [4], the “fold loss of potency at inhibiting ST compared to NSC279836” value is on record as “around 20 fold”. For the same molecule, the “ST activity compared to the DMSO control” value on HIV-1 IN [4] (increase at lower concentrations) is on record as “up to 170%”. In data set [2] (setting [6]), the 50% cytotoxic concentration (CC50) at 24 h was over 5 µM. For the same molecule, the “viral replication, maximum, relative to DMSO control” value in the data set with HIV-1Laï (dose-dependent increase (pro-viral effect)) was “up to 290%”.

In data set [1] (setting [8]), `COc1ccc2ccccc2c1/C=C/C(=O)c1ccc(OCc2ccccc2)cc1O` [Compound 2a] returned an IC50 of 2.6 µM. Moreover, the half-maximal cytotoxic concentration (CC50) at 24 h in data set [2] (setting [6]) was over 5 µM. The “effect on HIV replication, in words” value in the data set on HIV-1Laï is “pro-viral”.

In turn, `COc1cccc2c1C(=O)c1c(O)c3c(c(O)c1C2=O)CC(O)(C(=O)CO)CC3OC1CC(N(C)C)C(O)C(C)O1` (stereo not shown) [Compound 1r] returned an IC50 in data set [1] (setting [8]) of over 100 µM. The molecule also gave a CC50 at 24 h in data set [2] of 0.225 µM. For the same molecule, the “inhibition of IN in vitro, in words” value at HIV-1 IN [3] is given as “micromolar inhibitors”.

In the case of `CCC1(O)CC(OC2CC(N(C)C)C(O)C(C)O2)c2c(cc3c(c2O)C(=O)c2c(O)cccc2C3=O)C1C(=O)OC` (stereo not shown) [Compound 1f], the half-inhibitory concentration (IC50) in data set [1] (setting [8]) is 3.23 µM. The “IN-GCN2 interaction (%)” value in data set [1] is reported as 43.80%. Also, the half-maximal cytotoxic concentration (CC50) in data set [2] (24 h, read-out: CC50) was 2.35 µM. Besides, in the data set with HIV-1Laï (setting [7]), the 50% effective concentration (EC50) was found to be 1.39 µM.

By IC50 is commonly meant the concentration needed to halve the response being measured. Broadly, the CC50 is the concentration giving 50% cytotoxicity. A word on the EC50: it is the concentration needed to bring the measured effect to its halfway point.
